Bounds are passed on as bounds.

Series [1] deals with Epidermal growth factor receptor (Homo sapiens, UniProt P00533). The series can be described thus: Inhibition of wild type EGFR (unknown origin).
The target of series [2] is Epidermal growth factor receptor (Homo sapiens, UniProt P00533, C797S/L858R/T790M). Kind of series: Inhibition of EGFR L858R/T790M/C797S triple mutant (unknown origin).
Series [3] concerns the target Epidermal growth factor receptor (Homo sapiens, UniProt P00533, C797S/EX19DEL/T790M). Kind of series: Inhibition of EGFR del19/T790M/C797S triple mutant (unknown origin) in presence of ATP by FRET assay.
Series [4] in a line: Antiproliferative activity against human NCI-H1975 cells harboring EGFR L858R/T790M/C797S mutant assessed as reduction in cell growth incubated for 72 hrs by SRB assay. Format: functional, cell-based. The following applies: NCI-H1975, 72 h.
The target in series [5] is Tyrosine-protein kinase BTK (Homo sapiens, UniProt Q06187). Kind of series: Inhibition of wild type BTK (unknown origin) using TK as substrate incubated for 1 hr by HTRF assay.
The subject of the next series is BaF3. Kind of series: Antiproliferative activity against mouse BaF3 cells harboring EGFR L858R/T790M/C797S triple mutant assessed as inhibition of cell growth incubated for 72 hrs by CellTiter-Glo luminescent assay. It is filed as functional, cell-based. The following applies: BaF3, 72 h.
Series [6] is described as follows: Antiproliferative activity against human NCI-H1975 cells harboring EGFR L858R/T790M mutant assessed as cell growth inhibition incubated for 72 hrs by CellTiter Glo assay. The note with it: NCI-H1975, 72 h. It is filed as functional, cell-based.
A short description of series [7]: Antiproliferative activity against mouse Ba/F3 EGFR-T790M/C797S/L858R cells. Format: functional, cell-based.
The nature of series [8]: Intrinsic clearance in human liver microsomes. It is filed as ADME, Microsome. Background: Liver microsomes are vesicles of endoplasmic reticulum, rich in cytochrome P450 enzymes.
A short description of series [9]: Clearance in cynomolgus monkey at 1 mg/kg, iv by LC-MS/MS analysis. Format: ADME, organism-based, Macaca fascicularis. The following applies: in vivo.
Another series concerns A549. Kind of series: Antiproliferative activity against human A549 cells harboring wild type EGFR assessed as inhibition of cell proliferation incubated for 72 hrs by CCK8 assay. Format: functional, cell-based. The note with it: A549, 72 h. On the technique in general: Tetrazolium dyes change colour on reduction, which living cells bring about.

Epidermal growth factor receptor (Homo sapiens, UniProt P00533, C797S/L858R/T790M), sequence (P00533 25-1210 T790M/C797S/L858R limits assumed): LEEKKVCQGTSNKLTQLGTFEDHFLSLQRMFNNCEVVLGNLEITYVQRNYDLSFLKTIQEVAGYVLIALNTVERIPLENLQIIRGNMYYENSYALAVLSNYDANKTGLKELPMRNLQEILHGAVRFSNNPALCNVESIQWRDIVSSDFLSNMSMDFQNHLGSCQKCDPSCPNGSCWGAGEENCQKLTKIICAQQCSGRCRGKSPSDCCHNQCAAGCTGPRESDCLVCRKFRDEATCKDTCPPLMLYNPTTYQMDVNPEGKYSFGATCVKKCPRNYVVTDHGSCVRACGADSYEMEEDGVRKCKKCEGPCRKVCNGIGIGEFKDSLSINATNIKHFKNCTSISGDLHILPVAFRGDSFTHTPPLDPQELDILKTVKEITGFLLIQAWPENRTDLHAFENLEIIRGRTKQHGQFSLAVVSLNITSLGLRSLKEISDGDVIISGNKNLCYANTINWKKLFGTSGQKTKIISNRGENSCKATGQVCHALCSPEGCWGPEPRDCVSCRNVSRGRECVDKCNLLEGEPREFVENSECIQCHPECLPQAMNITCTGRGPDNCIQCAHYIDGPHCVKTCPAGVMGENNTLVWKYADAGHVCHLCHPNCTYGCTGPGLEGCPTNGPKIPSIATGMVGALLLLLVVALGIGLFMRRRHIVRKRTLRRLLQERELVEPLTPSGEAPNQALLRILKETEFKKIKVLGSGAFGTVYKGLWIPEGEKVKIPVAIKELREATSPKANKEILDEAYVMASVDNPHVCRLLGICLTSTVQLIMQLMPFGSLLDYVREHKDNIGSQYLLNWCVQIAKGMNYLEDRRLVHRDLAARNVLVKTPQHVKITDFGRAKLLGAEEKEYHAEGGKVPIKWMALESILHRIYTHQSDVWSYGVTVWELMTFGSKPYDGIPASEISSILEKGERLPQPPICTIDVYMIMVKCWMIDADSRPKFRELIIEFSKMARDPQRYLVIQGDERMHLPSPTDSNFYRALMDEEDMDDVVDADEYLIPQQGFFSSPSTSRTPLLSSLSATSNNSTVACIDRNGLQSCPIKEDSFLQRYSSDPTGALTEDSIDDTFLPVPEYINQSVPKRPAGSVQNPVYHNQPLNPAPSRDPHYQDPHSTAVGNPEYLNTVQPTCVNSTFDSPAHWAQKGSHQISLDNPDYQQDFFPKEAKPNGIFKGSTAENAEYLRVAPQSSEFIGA
Epidermal growth factor receptor (Homo sapiens, UniProt P00533), sequence (P00533 whole entry): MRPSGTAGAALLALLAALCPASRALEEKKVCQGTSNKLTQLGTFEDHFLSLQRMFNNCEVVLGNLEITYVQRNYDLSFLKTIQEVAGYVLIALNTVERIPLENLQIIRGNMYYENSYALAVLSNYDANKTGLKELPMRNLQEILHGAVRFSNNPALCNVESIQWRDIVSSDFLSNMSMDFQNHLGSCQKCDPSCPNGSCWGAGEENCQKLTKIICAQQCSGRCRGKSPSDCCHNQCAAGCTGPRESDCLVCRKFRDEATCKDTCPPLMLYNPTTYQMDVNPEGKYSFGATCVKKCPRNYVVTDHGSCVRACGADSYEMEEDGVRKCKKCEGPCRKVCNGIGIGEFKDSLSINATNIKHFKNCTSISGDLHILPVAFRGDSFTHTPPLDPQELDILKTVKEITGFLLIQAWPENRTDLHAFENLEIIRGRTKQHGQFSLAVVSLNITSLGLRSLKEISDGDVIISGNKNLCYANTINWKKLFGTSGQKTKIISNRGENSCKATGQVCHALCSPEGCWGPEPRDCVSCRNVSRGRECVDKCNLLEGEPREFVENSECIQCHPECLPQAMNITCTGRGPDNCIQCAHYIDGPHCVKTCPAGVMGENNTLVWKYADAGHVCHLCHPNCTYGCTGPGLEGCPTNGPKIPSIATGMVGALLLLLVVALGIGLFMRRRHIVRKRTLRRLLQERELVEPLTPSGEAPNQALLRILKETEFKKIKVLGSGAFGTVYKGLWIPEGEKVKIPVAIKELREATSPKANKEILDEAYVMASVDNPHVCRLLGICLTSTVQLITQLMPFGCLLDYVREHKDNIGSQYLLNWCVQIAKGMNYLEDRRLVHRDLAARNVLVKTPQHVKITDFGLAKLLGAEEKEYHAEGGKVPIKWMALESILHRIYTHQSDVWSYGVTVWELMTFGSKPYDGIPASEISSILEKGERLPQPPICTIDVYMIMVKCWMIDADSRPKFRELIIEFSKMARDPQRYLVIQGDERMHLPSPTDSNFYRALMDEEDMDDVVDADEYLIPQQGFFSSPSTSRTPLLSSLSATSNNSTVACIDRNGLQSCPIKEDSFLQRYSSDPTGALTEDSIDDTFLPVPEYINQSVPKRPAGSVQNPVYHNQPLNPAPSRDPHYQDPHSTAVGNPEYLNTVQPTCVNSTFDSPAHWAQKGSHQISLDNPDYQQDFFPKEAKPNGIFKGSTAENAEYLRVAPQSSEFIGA
Epidermal growth factor receptor (Homo sapiens, UniProt P00533, C797S/EX19DEL/T790M), sequence (P00533 whole entry, looked up, stated change not applied): as the sequence (P00533 whole entry) above
Tyrosine-protein kinase BTK, sequence (Q06187 whole entry): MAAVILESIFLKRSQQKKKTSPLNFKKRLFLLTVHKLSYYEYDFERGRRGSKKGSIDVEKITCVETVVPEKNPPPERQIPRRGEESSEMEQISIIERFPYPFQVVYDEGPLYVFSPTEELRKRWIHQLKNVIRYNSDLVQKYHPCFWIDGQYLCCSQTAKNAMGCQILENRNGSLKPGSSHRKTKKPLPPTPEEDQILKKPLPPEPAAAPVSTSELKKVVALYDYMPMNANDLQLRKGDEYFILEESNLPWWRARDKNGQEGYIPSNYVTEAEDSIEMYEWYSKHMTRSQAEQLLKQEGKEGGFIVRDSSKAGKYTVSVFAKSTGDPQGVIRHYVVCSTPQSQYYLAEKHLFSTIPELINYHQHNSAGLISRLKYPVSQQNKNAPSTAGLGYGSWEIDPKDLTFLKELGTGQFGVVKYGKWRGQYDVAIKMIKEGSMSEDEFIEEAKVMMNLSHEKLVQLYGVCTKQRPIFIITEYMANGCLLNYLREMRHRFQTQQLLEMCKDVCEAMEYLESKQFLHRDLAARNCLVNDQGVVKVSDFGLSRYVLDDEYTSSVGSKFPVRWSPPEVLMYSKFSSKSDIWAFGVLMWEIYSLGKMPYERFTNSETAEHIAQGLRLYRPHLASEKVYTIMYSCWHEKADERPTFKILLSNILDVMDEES

For `C=CC(=O)Nc1ccc(OC)c(Nc2cc(-c3[nH]c(CCCO)nc3-c3ccc(F)cc3)ccn2)c1`, the IC50 in [1] was determined as 8 nM.
Still for that read-out and setting: the result for `OCCCc1nc(-c2ccc(F)cc2)c(-c2ccnc3[nH]c(-c4ccccc4)cc23)[nH]1` reads under 0.5 nM.
In the case of `CN1CCN(C2CCN(c3ccc(Nc4ncc(Cl)c(Nc5ccccc5P(C)(C)=O)n4)cc3Cl)CC2)CC1`, half-maximal inhibition in series [2] (IC50) was put at 0.7 nM.
For `CCP(=O)(CC)c1ccccc1Nc1nc(Nc2cc(-c3cnn(C)c3)c(N3CCOCC3)cc2OC)ncc1Cl`, the IC50 in [3] was 0.2 nM.
Molecule `Cc1cc(Nc2ncc(Cl)c(Nc3ccccc3P(C)(C)=O)n2)ccc1N1CCC(N2CCN(C)CC2)CC1` came in with an IC50 in series [2] of 0.6 nM.
For the molecule `COc1cc(N2CCC(N(C)C)CC2)c(-c2cnn(C)c2)cc1Nc1ncc(Cl)c(Nc2ccccc2P(C)(C)=O)n1`, in [3], the IC50 was 0.19 nM.
As for `COc1cc(N2CCOCC2)c(-c2cnn(C)c2)cc1Nc1ncc(Cl)c(Nc2ccccc2P(C)(C)=O)n1`, the values for the IC50 in series [4], in [3] and in [5] were 0.122 nM, 0.2 nM and 4.4 nM, respectively.
Consider `COc1cc(N2CCC(N3CCN(C)CC3)CC2)c(-c2cnn(C)c2)cc1Nc1ncc(Cl)c(Nc2ccccc2P(C)(C)=O)n1`, for which the IC50 in [3] was 0.32 nM.
As for `COc1cc(N2CCC(N(C)C)CC2)c(-c2cn[nH]c2)cc1Nc1ncc(Cl)c(Nc2ccccc2P(C)(C)=O)n1`, the IC50 in series [2] turned out to be 0.5 nM.
For the molecule `CCS(=O)(=O)n1cc2c3cc(ccc31)OCCCCCCOc1cc(ccc1N1CCOCC1)Nc1ncc(Cl)c-2n1`, the 50% inhibitory concentration (IC50) in series [3] stood at 6.2 nM.
In the case of `CCS(=O)(=O)n1cc2c3ccc(cc31)OCCCCCCOc1cc(c(Cl)cc1N1CCOCC1)Nc1ncc(Cl)c-2n1`, the IC50 in series [3] worked out at 6.2 nM.
With `CCS(=O)(=O)n1cc(-c2nc(Nc3cc(Cl)c(N4CCC(N5CCN(C)CC5)CC4)cc3OC)ncc2Cl)c2ccccc21`, the IC50 in series [3] worked out at 24.2 nM; in series [2] it was 145 nM.
In the case of `CCS(=O)(=O)n1cc2c3ccc(cc31)OCCCCCCOc1cc(c(C3CC3)cc1N1CCOCC1)Nc1ncc(Cl)c-2n1`, in series [3], the IC50 turned out to be 56.4 nM.
With `CCOC1CN(C2CCN(c3cc(OC)c(Nc4ncc(Br)c(Nc5ccc6nccnc6c5P(C)(C)=O)n4)cc3C)CC2)C1`, the 50% inhibitory concentration (IC50) in the series on BaF3 stood at 29 nM.
With `COc1cc(N2CCC(N3CC(N(C)C)C3)CC2)c(C)cc1Nc1ncc(Br)c(Nc2ccc3nccnc3c2P(C)(C)=O)n1`, the IC50 in the series on BaF3 worked out at 12.7 nM.
For the molecule `CCS(=O)(=O)n1cc2c3ccc(cc31)OCCCCCOc1cc(ccc1N1CCOCC1)Nc1ncc(Cl)c-2n1`, the 50% inhibitory concentration (IC50) in [3] was 141 nM.
As to `COc1cc(N2CCC(N3CCN(C)CC3)CC2)ccc1Nc1ncc(Cl)c(-c2cn(S(=O)(=O)C(C)C)c3ccccc23)n1`, the IC50 was found to be 33.3 nM in [3] and 222 nM in [2].
`CCc1cc(Nc2ncc(Br)c(Nc3ccc4c(c3P(C)(C)=O)OCCO4)n2)c(OC)cc1N1CCC(N2CC(N(C)C)C2)CC1`: the results for the IC50 (in [3]; in the series with BaF3) were 0.08 nM and 8 nM, respectively.
As for `CCS(=O)(=O)n1cc2c3ccc(cc31)OCCCCCCOc1cc(c(C)cc1N1CCOCC1)Nc1ncc(Cl)c-2n1`, the IC50 in series [3] is 23.6 nM.
In the case of `CCOC1CN(C2CCN(c3cc(OC)c(Nc4ncc(Br)c(Nc5ccc6c(c5P(C)(C)=O)OCCO6)n4)cc3C)CC2)C1`, the IC50 in the series with BaF3 is 14 nM.
In the case of `COc1cc(N2CCC(N3CCN(C)CC3)CC2)ccc1Nc1ncc(Cl)c(-c2cn(S(=O)(=O)C3CC3)c3ccccc23)n1`, the IC50 in [3] is 25.6 nM; in series [2], 4.3 nM.
`CCS(=O)(=O)n1cc2c3cc(ccc31)OCCCCCOc1cc(ccc1N1CCOCC1)Nc1ncc(Cl)c-2n1`: the IC50 in series [3] came out at 19 nM.
On to `CCc1cc(Nc2ncc(Br)c(Nc3ccc4c(c3P(C)(C)=O)OCO4)n2)c(OC)cc1N1CCC(N2CC(N(C)C)C2)CC1`, for which the IC50 is 0.15 nM in [3], 0.4 nM in [2] and 40 nM with BaF3.
For the molecule `CCS(=O)(=O)n1cc2c3ccc(cc31)OCCCCCCOc1cc(ccc1N1CCOCC1)Nc1ncc(Cl)c-2n1`, the IC50 in series [3] came to 57 nM.
In the case of `CNC(=O)c1cnc(Nc2ccnc(N3CCC(O)CC3)n2)cc1NC(C)C`, in [6], the IC50 was 46 nM.
Regarding `COc1cc(N2CCC(N(C)C)CC2)ccc1Nc1ncc(C(=O)Oc2ccccc2)c(-c2c[nH]c3ccccc23)n1`, the IC50 in the series on BaF3 worked out at 7.1 nM; in series [1] it was 0.01 nM.
For the molecule `COc1cc(N2CCN(C)CC2)ccc1Nc1ncc(C(=O)OC(C)C)c(-c2cn(C)c3ccccc23)n1`, the IC50 in the series on BaF3 stood at 615 nM.
Regarding `COc1cc(N2CCN(C)CC2)ccc1Nc1ncc(C(=O)Oc2ccccc2)c(-c2cn(C)c3ccccc23)n1`, the IC50 with BaF3 was found to be 94 nM; in series [1], 0.05 nM.
Consider `COc1cc(N2CCC(N)CC2)ccc1Nc1ncc(C(=O)OC(C)C)c(-c2cn(C)c3ccccc23)n1`, for which the IC50 in the series with BaF3 worked out at 354 nM.
With `COc1cc(N2CCC(N3CC(C)(CO)C3)CC2)c(C)cc1Nc1ncc(Br)c(Nc2ccc3nccnc3c2P(C)(C)=O)n1`, in the series with BaF3, the IC50 stood at 17.7 nM.
The same measure, in the same setting: the result for `COc1cc(N2CCC(N3CC(CC#N)C3)CC2)c(C)cc1Nc1ncc(Br)c(Nc2ccc3nccnc3c2P(C)(C)=O)n1` reads 12.7 nM.
As to `COc1cc(N2CCC(N3CC(C(C)(C)O)C3)CC2)c(C)cc1Nc1ncc(Br)c(Nc2ccc3nccnc3c2P(C)(C)=O)n1`, the IC50 in the series with BaF3 was 18 nM.
With `COc1cc(N2CCC(N3CC(F)(CO)C3)CC2)c(C)cc1Nc1ncc(Br)c(Nc2ccc3nccnc3c2P(C)(C)=O)n1`, the IC50 with BaF3 came to 18.7 nM.
In the case of `COCC1(C)CN(C2CCN(c3cc(OC)c(Nc4ncc(Br)c(Nc5ccc6nccnc6c5P(C)(C)=O)n4)cc3C)CC2)C1`, the IC50 in the series with BaF3 came out at 22.3 nM.
As for `COCC1CN(C2CCN(c3cc(OC)c(Nc4ncc(Br)c(Nc5ccc6nccnc6c5P(C)(C)=O)n4)cc3C)CC2)C1`, the IC50 in series [3] was found to be 0.7 nM; in the series with BaF3 it was 15 nM.
With `COc1cc(N2CCC(N3CC(CO)C3)CC2)c(C)cc1Nc1ncc(Br)c(Nc2ccc3nccnc3c2P(C)(C)=O)n1`, the IC50 in the series on BaF3 came out at 41 nM.
Regarding `CN1CCCN(c2ccc(Nc3ncc(Br)c(Nc4ccccc4NS(=O)(=O)C4CC4)n3)cc2)CC1`, the figures for the IC50 (with BaF3; in [1]) were 5.6 nM and 0.61 nM, respectively.
Take `Cc1cc(Nc2ncc(Br)c(Nc3ccccc3NS(=O)(=O)C3CC3)n2)ccc1N1CCCN(C)CC1`: in series [1], the IC50 turned out to be 70.7 nM.
Molecule `CN(C)C1CCN(c2ccc(Nc3ncc(Br)c(Nc4ccccc4NS(=O)(=O)C4CC4)n3)cc2NS(C)(=O)=O)CC1` registered an IC50 in series [7] of 780 nM.
As for `Cc1cc(Nc2ncc(Cl)c(Nc3ccccc3NS(=O)(=O)C3CC3)n2)ccc1N1CCC(N(C)C)CC1`, the IC50 in series [2] came to 0.03 nM; in series [1], 4.76 nM.
As for `COC1CCN(c2nccc(Nc3cc4c(C(C)C)ccc(N5CC(CS(C)(=O)=O)C5C)c4cn3)n2)CC1F` (stereo not given), in series [4], the IC50 is 1.1 nM. This molecule also showed a CLH in [8] of 89 µL/min/mg.
Turning to `CC(C)c1cnc(N2CC(O)C2C)c2cnc(Nc3ccnc(N4CCC(O)C(C)(F)C4)n3)cc12` (stereo not given), in [6], the IC50 turned out to be 20 nM.
Turning to `COCCCc1nc(-c2ccc(F)cc2)c(-c2ccnc3[nH]c(-c4ccccc4)cc23)[nH]1`, the IC50 in series [2] and in series [1] was 6 nM throughout.
In series [9], `CC(C)c1ccc(N2CC(CS(C)(=O)=O)C2C)c2cnc(Nc3ccnc(N4CCC(O)C(C)(F)C4)n3)cc12` (stereo not given) returned a clearance of 31.8 mL/min/kg.
As for `COc1cc(N2CCN(C)CC2)c(-c2cn[nH]c2)cc1Nc1ncc(Cl)c(Nc2ccccc2P(C)(C)=O)n1`, the concentration for half-maximal inhibition (IC50) in [3] was found to be 0.23 nM.
As to `CCS(=O)(=O)n1cc2c3cc(ccc31)OCCCCCCCCOc1cc(ccc1N1CCOCC1)Nc1ncc(Cl)c-2n1`, the IC50 in series [3] came out at 89 nM.
In the case of `CC(C)c1cnc(N2CC(CS(C)(=O)=O)C2)c2cnc(Nc3ccnc(N4CCC(O)C(C)(F)C4)n3)cc12` (stereo not given), the half-maximal inhibitory concentration (IC50) in the series with A549 was 5290 nM.
As to `C=CC(=O)Nc1ccc(OC)c(Nc2cc(-c3[nH]c(SCCOC)nc3-c3ccc(F)cc3)ccn2)c1`, the IC50 in series [2] was 35 nM.
On to `CCS(=O)(=O)n1cc2c3cc(ccc31)OCCCCOc1cc(ccc1N1CCOCC1)Nc1ncc(Cl)c-2n1`, for which the IC50 in [3] is over 1000 nM.
With `COc1cc(N2CCN(C(C)=O)CC2)ccc1Nc1nccc(Nc2ccc(Nc3ccc(S(=O)(=O)F)cc3)cc2)n1`, the half-inhibitory concentration (IC50) in series [2] was determined as 110 nM; in series [1] it was 210 nM.
`CCS(=O)(=O)n1cc2c3cc(ccc31)OCCCCCCCOc1cc(ccc1N1CCOCC1)Nc1ncc(Cl)c-2n1`: the IC50 in series [3] came out at 19 nM.
Turning to `CNc1ncc(C(C)C)c2cc(Nc3ccnc(N4CCC(O)C(F)C4)n3)ncc12` (stereo not given), the IC50 in series [6] turned out to be 12 nM.
Same read-out and setting: the result for `CC(C)c1cnc(N2CCC2)c2cnc(Nc3ccnc(N4CCC(O)C(C)(F)C4)n3)cc12` (stereo not given) reads 9.1 nM.
Regarding `C=CC(=O)Nc1cc(Nc2ncc(C(=O)OC(C)C)c(-c3cn(C)c4ccccc34)n2)c(OC)cc1N(C)CCN(C)C` [MOBOCERTINIB], the IC50 in the series with BaF3 stood at 271 nM.

In general, IC50 refers to the concentration that inhibits the measured activity by half. As usually defined, the clearance is a measure of how efficiently the substance is removed, as volume per time.

(Values after ChEMBL document CHEMBL6087440, “Catalytic Lysine745 targeting strategy in fourth-generation EGFR tyrosine kinase inhibitors to address C797S mutation resistance” (Eur J Med Chem, 2025).)
